Test results taken from patent US8722343B2, “Methods and compositions for the diagnosis and treatment of diabetes” (priority 2008, dated 2014).

Legend:
Format in all cases: cell-based
βTC3 cells = assay: TUNEL apoptosis assay in βTC3 cells; conditions: 0.1 mM DHK for five days
Description: 1B: Glutamate overstimulation causes increased β-cell apoptosis. 24 hours after plating, βTC3 cells were incubated for five days with 0.5 mM glutamate, and cell apoptosis was assessed by TUNEL assay. The cell nuclei were labelled with PrI. Histograms on the right represent TUNEL positive cells per field, and are the mean±SE of two independent experiments performed in duplicate.
6C TUNEL assay: 24 hours after plating, βTC3 cells were incubated for five days with 0.1 mM DHK, and cell apoptosis was assessed by TUNEL assay. Cell nuclei were labelled with PrI. Data are presented as TUNEL positive cells per field (histograms on the right), and are the mean±SE of two independent experiments performed in duplicate. * P<0.05
6D ShRNA interference. βTC3 cells were transfected with two different shRNA directed against GLT1 (Sh1, Sh3) or a control shRNA (ShC), and three days after transfection, cells were assayed for 3[H]-D-aspartate uptake (b) or lysed and the presence of GLT assayed by western blotting (a) or fixed and processed for TUNEL (c).
Apoptosis of β-TC3 cells was estimated using the terminal deoxynucleotidyltransferase-mediated dUTP-biotin nick end-labelling assay (TUNEL). […] Tunel-positive cells were counted by two independent observers using a 40× objective from at least 40 randomly selected fields per coverslip. […]

GLT1 = target: T1, GLT1 (Homo sapiens, UniProt P43004); assay: Na-dependent [3H]-D-aspartate uptake in isolated human islets; set-up: dose or concentration left out as unconfirmed
T1 construct: from tissue; host or cells: isolated human pancreatic islets from cadaveric multiorgan donors
Description: 3B: 3H-D Aspartate uptake. The Na-dependent (NaCl) and Na-independent (ChCl) [3H]-D-Aspartate uptake was measured in 40, hand picked, isolated human islets. […] Data are expressed as % of Na-dependent uptake (NaCl) and represent the mean±SE of at least three independent experiments performed in triplicate. * (DHK versus controls) P<0.001.
Human pancreatic islets were isolated from the pancreases of cadaveric multiorgan donors by using the procedure already described by Ricordi (Ricordi, et al, 1988). The islets used in this study were isolated from eight different organs. After the isolation, the islets were purified from the contaminant exocrine tissue by centrifugation on Ficoll gradients, obtaining a final purity that ranged from 60% to 80%, as assayed by dithizone staining (Ricordi et al, 1988). Islets were then cultured in RPMI 1640 tissue culture medium. After a 48-h stabilization culture, old medium was replaced with fresh medium and islets were cultured until used for insulin secretory studies, RNA extraction and uptake experiments. For apoptosis assay, fresh medium containing glutamate (0.5 or 5 mM) or DHK (0.05 or 0.1 mM) was replaced and islets were cultured for additional five days.
150.000 cells/well were plated in a 24-wells plate, and grown until confluence. […]

human isolated islets = conditions: 16.7 mM glucose; DHK (0.3 mM) or L-glutamate (0.5 mM) alone
Description: FIG. 5: GLT1 CONTROLS HORMONE SECRETION IN HUMAN ISOLATED ISLETS. 48 hours after isolation, 20 human islets per tube were exposed to 3.3 or 16.7 mM glucose in the absence and the presence of either L-glutamate (0.5 mM), DHK (0.3 mM) or both L-glutamate and DHK, and insulin secretion measured. Levels of secreted insulin from islets were normalized to total insulin content. Data are expressed as % of insulin content and represent the mean±SD of two independent experiments performer in duplicate.
Insulin content and secretion were assessed on 20 islets, using a Micro-particle Enzyme Immunoassay (MEIA insulin, IMX System, Abbott Laboratories, Abbott Park, Ill., USA). Insulin secretion in response to increasing glucose concentrations, glutamate or DHK treatment was assessed by static incubation as previously described (Federici et al, 2000). Briefly, batches of 20 islets were pre-incubated in 1 ml of Krebs-Ringer buffer (KRB) supplemented with 3, 3 or 16.7 mM glucose for 30 min. Then the supernatants were replaced with Kreb's buffer containing 3, 3 or 16.7 mM glucose plus glutamate or the specific GLT1 inhibitor DHK (Sigma, St Louis, Mo., USA), as indicated. After a 30-min incubation at 37° C., the medium was removed and frozen for immunoassays. At the end of incubation, islets were lysed in lyses buffer and the total insulin content determined by immunoassay. […]

T1 sequence (P43004 whole entry): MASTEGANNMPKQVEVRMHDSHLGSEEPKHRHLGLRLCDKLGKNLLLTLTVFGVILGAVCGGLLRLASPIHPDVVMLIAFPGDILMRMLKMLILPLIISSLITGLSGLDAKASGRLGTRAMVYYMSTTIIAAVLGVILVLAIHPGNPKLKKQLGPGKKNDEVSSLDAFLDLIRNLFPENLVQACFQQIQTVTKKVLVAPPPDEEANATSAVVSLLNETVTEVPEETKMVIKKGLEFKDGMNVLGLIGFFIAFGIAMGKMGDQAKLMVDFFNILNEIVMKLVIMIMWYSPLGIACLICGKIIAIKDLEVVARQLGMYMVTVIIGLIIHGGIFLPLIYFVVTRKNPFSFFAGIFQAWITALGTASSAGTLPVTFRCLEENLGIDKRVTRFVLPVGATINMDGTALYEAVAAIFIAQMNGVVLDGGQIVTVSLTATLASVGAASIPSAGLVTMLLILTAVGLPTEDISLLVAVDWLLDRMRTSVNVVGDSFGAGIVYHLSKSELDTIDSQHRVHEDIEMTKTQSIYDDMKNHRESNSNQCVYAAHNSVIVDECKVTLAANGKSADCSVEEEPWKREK

SMILES: CC(C)[C@H]1CN[C@H](C(=O)O)[C@H]1CC(=O)O [DHK, Dihydrokainic Acid]
- cause of cytotoxicity by TUNEL assay (βTC3 cells): due to apoptosis
- Na-dependent transport of aspartate (GLT1): completely inhibited
- effect on insulin secretion (human isolated islets): No effect
